Laboratory results published in US8674118B2, “Compounds and methods for the treatment or prevention of flavivirus infections” (priority 2005, dated 2014).

system: HCV RNA replication (replicon cell lines Huh-7, 5.2 and ET); assay: Cell-Based Luciferase Reporter HCV RNA Replication Assay; details: Hepatitis C virus, Huh-7, 96 h

SMILES | IC50
CC1CCC(C(=O)N(c2cc(C3=CC4CCC3C4)sc2C(=O)O)C2CCC(O)CC2)CC1 (stereo not drawn) [Compound 28, 5-bicyclo[2.2.1]hept-2-en-2-yl-3-[(4-trans-hydroxy-cyclohexyl)-(4-trans-methyl-cyclohexanecarbonyl)-amino]-thiophene-2-carboxylic acid] | > 25 µM

same assay, conditions: Hepatitis C virus, Huh-7, 96 h, Huh-7, 5.2 or ET replicon cells, luciferase counts after 4 days incubation; read-out: IC50

SMILES | IC50
C[C@H]1CC[C@H](C(=O)N(c2cc(C3=CCCC3)sc2C(=O)O)[C@H]2CC[C@H](O)CC2)CC1 [Compound 3, 5-Cyclopent-1-enyl-3-[(trans-4-hydroxy-cyclohexyl)-(trans-4-methyl-cyclohexanecarbonyl)-amino]-thiophene-2-carboxylic acid] | < 5 µM
C[C@H]1CC[C@H](C(=O)N(c2cc(C3=CCCCCC3)sc2C(=O)O)[C@H]2CC[C@H](O)CC2)CC1 [Compound 5, 5-Cyclohept-1-enyl-3-[(trans-4-hydroxy-cyclohexyl)-(trans-4-methyl-cyclohexanecarbonyl)-amino]-thiophene-2-carboxylic acid] | < 5 µM
C[C@H]1CC[C@H](C(=O)N(c2cc(C3CCCCCC3)sc2C(=O)O)[C@H]2CC[C@H](O)CC2)CC1 [Compound 6, 5-Cycloheptyl-3-[(trans-4-hydroxy-cyclohexyl)-(trans-4-methyl-cyclohexanecarbonyl)-amino]-thiophene-2-carboxylic acid] | < 5 µM
CC(C)N(c1cc(C2=CCCCC2)sc1C(=O)O)C(=O)[C@H]1CC[C@H](C)CC1 [Compound 7, 5-Cyclohex-1-enyl-3-[isopropyl-(trans-4-methyl-cyclohexanecarbonyl)-amino]-thiophene-2-carboxylic acid] | < 5 µM
C[C@H]1CC[C@H](C(=O)N(c2cc(C3=CCCCC3)sc2C(=O)O)C2CCC(=O)CC2)CC1 [Compound 8, 5-Cyclohex-1-enyl-3-[(trans-4-methyl-cyclohexanecarbonyl)-(4-oxo-cyclohexyl)-amino]-thiophene-2-carboxylic acid] | < 5 µM
C[C@H]1CC[C@H](C(=O)N(c2cc(C3=CCCCC3)sc2C(=O)O)[C@H]2CC[C@@H](O)CC2)CC1 [Compound 9, 5-Cyclohex-1-enyl-3-[(cis-4-hydroxy-cyclohexyl)-(trans-4-methyl-cyclohexanecarbonyl)-amino]-thiophene-2-carboxylic acid] | < 5 µM
C[C@H]1CC[C@H](C(=O)N(c2ccccc2)c2cc(C3=CCCCC3)sc2C(=O)O)CC1 [Compound 10, 5-Cyclohex-1-enyl-3-[(trans-4-methyl-cyclohexanecarbonyl)-phenyl-amino]-thiophene-2-carboxylic acid] | < 5 µM
C[C@H]1CC[C@H](C(=O)N(c2cc(C3=CCCCC3)sc2C(=O)O)C2CCCCC2)CC1 [Compound 11, 5-Cyclohex-1-enyl-3-[cyclohexyl-(trans-4-methyl-cyclohexanecarbonyl)-amino]-thiophene-2-carboxylic acid] | < 5 µM
CO[C@H]1CC[C@H](N(c2cc(C3=CCCCC3)sc2C(=O)O)C(=O)[C@H]2CC[C@H](C)CC2)CC1 [Compound 12, 5-Cyclohex-1-enyl-3-[(trans-4-methoxy-cyclohexyl)-(trans-4-methyl-cyclohexanecarbonyl)-amino]-thiophene-2-carboxylic acid] | < 5 µM
CC1CCC(C(=O)N(c2cc(C3=CCC4(CC3)OCCO4)sc2C(=O)O)C2CCC(O)CC2)CC1 (stereo not drawn) [Compound 14, 5-(1,4,Dioxa-spiro[4.5.]dec-7-en-8-yl)-3-[(trans-4-hydroxy-cyclohexyl)-(trans-4-methyl-cyclohexanecarbonyl)-amino]-thiophene-2-carboxylic acid] | < 5 µM
CC(C)N(C(=O)c1ccc(Cl)cc1Cl)c1cc(C2=CCCC2)sc1C(=O)O [Compound 15, 5-Cyclopent-1-enyl-3-[(2,4-dichloro-benzoyl)-isopropyl-amino]-thiophene-2-carboxylic acid] | > 25 µM
C[C@H]1CC[C@H](C(=O)N(c2cc(C3=CCCC3)sc2C(=O)O)[C@H]2CC[C@H](O)CC2)CC1 [Compound 16, 5-Cyclopent-1-enyl-3-[(trans-4-hydroxy-cyclohexyl)-(trans-4-methyl-cyclohexanecarbonyl)-amino]-thiophene-2-carboxylic acid] | < 5 µM
CO[C@H]1CC[C@H](N(c2cc(C3=CCC(C)(C)CC3)sc2C(=O)O)C(=O)[C@H]2CC[C@H](C)CC2)CC1 [Compound 20, 5-(4,4-Dimethyl-cyclohex-1-enyl)-3-[(trans-4-methoxy-cyclohexyl)-(trans-4-methyl-cyclohexanecarbonyl)-amino]-thiophene-2-carboxylic acid] | < 5 µM
CO[C@H]1CC[C@H](N(c2cc(C3CCC(C)(C)CC3)sc2C(=O)O)C(=O)[C@H]2CC[C@H](C)CC2)CC1 [Compound 21, 5-(4,4-Dimethyl-cyclohexyl)-3-[(trans-4-methoxy-cyclohexyl)-(trans-4-methyl-cyclohexanecarbonyl)-amino]-thiophene-2-carboxylic acid] | < 5 µM
CCO[C@H]1CC[C@H](N(c2cc(C3=CCCCC3)sc2C(=O)O)C(=O)[C@H]2CC[C@H](C)CC2)CC1 [Compound 22, 5-Cyclohex-1-enyl-3-[(trans-4-ethoxy-cyclohexyl)-(trans-4-methyl-cyclohexanecarbonyl)-amino]-thiophene-2-carboxylic acid] | < 5 µM
COC1CCC(N(C(=O)C2CCC(C)CC2)c2cc(C3=CCCCC3)sc2C(=O)O)CC1 (stereo not drawn) [Compound 23, 5-Cyclohex-1-enyl-3-[(cis-4-methoxy-cyclohexyl)-(4-trans-methyl-cyclohexanecarbonyl)-amino]-thiophene-2-carboxylic acid] | < 5 µM
COCO[C@H]1CC[C@H](N(c2cc(C3=CCCCC3)sc2C(=O)O)C(=O)[C@H]2CC[C@H](C)CC2)CC1 [Compound 24, 5-Cyclohex-1-enyl-3-[(trans-4-methoxymethoxy-cyclohexyl)-(trans-4-methyl-cyclohexanecarbonyl)-amino]-thiophene-2-carboxylic acid] | < 5 µM
CC1CCC(C(=O)N(c2cc(C3=CCC(=O)CC3)sc2C(=O)O)C2CCC(O)CC2)CC1 (stereo not drawn) [Compound 25, 3-[(4-trans-hydroxy-cyclohexyl)-(4-trans-methyl-cyclohexanecarbonyl)-amino]-5-(4-oxo-cyclohex-1-enyl)-thiophene-2-carboxylic acid] | 5 to 25 µM
CC1CCC(C(=O)N(c2cc(C3=CC/C(=N/OCc4ccccc4)CC3)sc2C(=O)O)C2CCC(O)CC2)CC1 (stereo not drawn) [Compound 26, 5-{4-benzyloxyimino-cyclohex-1-enyl}-3-[(4-trans-hydroxy-cyclohexyl)-(4-trans-methyl-cyclohexanecarbonyl)-amino]-thiophene-2-carboxylic acid] | < 5 µM
CCO/N=C1/CC=C(c2cc(N(C(=O)C3CCC(C)CC3)C3CCC(O)CC3)c(C(=O)O)s2)CC1 (stereo not drawn) [Compound 27, 5-{4-ethoxyimino-cyclohex-1-enyl}-3-[(4-trans-hydroxy-cyclohexyl)-(4-trans-methyl-cyclohexanecarbonyl)-amino]-thiophene-2-carboxylic acid] | < 5 µM
C[C@H]1CC[C@H](C(=O)N(c2cc(C3=CCCCC3)sc2C(=O)O)C2CCOCC2)CC1 [Compound 29, 5-cyclohex-1-enyl-3-[(trans-4-methyl-cyclohexanecarbonyl)-(tetrahydro-pyran-4-yl)-amino]-thiophene-2-carboxylic acid] | < 5 µM
C[C@H]1CC[C@H](C(=O)N(c2cc(C3=CCCCC3)sc2C(=O)O)C2COCOC2)CC1 [Compound 30, 5-cyclohex-1-enyl-3-[[1,3]dioxan-5-yl-(trans-4-methylcyclohexanecarbonyl)-amino]-thiophene-2-carboxylic acid] | < 5 µM
CC(C)N(C(=O)c1ccc(Cl)cc1Cl)c1cc(C2=CCCCC2)sc1C(=O)O [Compound 31, 5-cyclohex-1-enyl-3-[(2,4-dichloro-benzoyl)-isopropyl-amino]-thiophene-2-carboxylic acid] | 5 to 25 µM
CC1CCC(C(=O)N(c2cc(C3=CCC(O)CC3)sc2C(=O)O)C2CCC(O)CC2)CC1 (stereo not drawn) [Compound 34, RS-5-(4-hydroxy-cyclohex-1-enyl)-3-[(4-trans-hydroxy-cyclohexyl)-(4-trans-methyl-cyclohexanecarbonyl)-amino]-thiophene-2-carboxylic acid] | < 5 µM
CC1CCC(C(=O)N(c2cc(C3=CCC(C)(C)CC3)sc2C(=O)O)C2CCC(O)CC2)CC1 (stereo not drawn) [Compound 35, 5-(4,4-dimethyl-cyclohex-1-enyl)-3-[(4-trans-4-hydroxy-cyclohexyl)-(trans-4-methyl-cyclohexanecarbonyl)-amino]-thiophene-2-carboxylic acid] | < 5 µM
CN(c1cc(C2=CCCCC2)sc1C(=O)O)C(=O)[C@H]1CC[C@H](C)CC1 [Compound 37, 5-cyclohex-1-enyl-3-[methyl-(trans-4-methyl-cyclohexanecarbonyl)-amino]-thiophene-2-carboxylic acid] | 5 to 25 µM
CC1(C)CCC(N(c2cc(C3=CCCCC3)sc2C(=O)O)C(=O)[C@H]2CC[C@H](C)CC2)CC1 [Compound 38, 5-cyclohex-1-enyl-3-[(4,4-dimethyl-cyclohexyl)-(trans-4-methyl-cyclohexanecarbonyl)-amino]-thiophene-2-carboxylic acid] | < 5 µM
C[C@H]1CC[C@H](C(=O)N(c2cc(C3=CCCCC3)sc2C(=O)O)[C@H]2CC[C@@H](n3cncn3)CC2)CC1 [Compound 41, 5-cyclohex-1-enyl-3-[(trans-4-methyl-cyclohexanecarbonyl)-(cis 4-[1,2,4]triazol-1-yl-cyclohexyl)-amino]-thiophene-2-carboxylic acid] | < 5 µM
C[C@H]1CC[C@H](C(=O)N(c2cc(C3=CCCCC3)sc2C(=O)O)C2CCSCC2)CC1 [Compound 42, 5-cyclohex-1-enyl-3-[(trans-4-methyl-cyclohexanecarbonyl)-(tetrahydrothiopyran-4-yl)-amino]-thiophene-2-carboxylic acid] | < 5 µM
CC1CCC(C(=O)N(c2cc(C3=CCCCC3)sc2C(=O)O)C2CCC(C(C)(C)C)CC2)CC1 (stereo not drawn) [Compound 44, 3-[(4-trans-tert-butyl-cyclohexyl)-(4-trans-methyl-cyclohexanecarbonyl)-amino]-5-cyclohex-1-enyl-thiophene-2-carboxylic acid] | 5 to 25 µM
